# According to US20240316043A1, “BROMODOMAIN INHIBITORS FOR CANCER THERAPY” (University of Tennessee Research Foundation, priority 2023, published 2024):
# “Also recorded” adds a separate entry of the source.
# How the values were obtained:
# T98G GBM cells [1] = assay: IncuCyte live cell imaging proliferation assay; type: cell-based; details: TMZ (500 μM) plus bromodomain inhibitors (20 μM), FIG. 2
# Protocol: T98G GBM cells were treated with TMZ (500 μM), the bromodomain inhibitors (20 μM), and cell proliferation was determined by Incucyte live cell assays using cellular confluence method. The data was normalized to the calculated cell confluence at day 0. Control cells were treated with vehicle (DMSO).
# To further characterize the biological activity of selected bromodomain inhibitors, YH-IV-129, YH-IV-181 and YH-IV-191, IncuCyte live cell imaging proliferation assays were performed with the highly TMZ-resistant T98G GBM cell line.
# [2] = tested on: intracranial GBM xenografts (MT330 cells); assay: Orthotopic GBM model, MT330 cells injected into brains of NSG mice; type: in vivo
# Protocol: MT330 cells (10^6) were injected into the brains of NSG female mice. After tumors were identified by BLI (˜10 days post-injection), mice were IP injected with TMZ (60 mg/Kg body weight) or IV-129 (10 mg/Kg) alone or in combination 3 times per week (5 mice per group) for 2 weeks. […] FIG. 5C Kaplan-Meier analysis of the survival data (5 mice/group) of the brain tumor-bearing mice was performed.
# MT330 cells […] were injected into the brains of NSG female mice. After tumors were identified by BLI (˜10 days post-injection), mice were IP injected with TMZ (10 mg/Kg body weight), IV-255 or IV-275 (20 mg/Kg) alone or in combination 3 times per week (5 mice/group).
# Luciferase-expressing MT330 cells were injected into the brains of immunocompromised NSG mice. Once tumors were identified by bioluminescence imaging (BLI) at ˜10 days after tumor cell injection, mice were subjected to intraperitoneal injection of TMZ or YH-IV-129 alone, or in combination. At 20 days after initiation of treatment, live animal imaging was performed on an IVIS Lumina instrument. […] The mean survival of control mice was 27 days after cell injection (FIG. 5C).
# Luciferase-expressing MT330 cells were injected into the brains of immunocompromised NSG mice. Once tumors were identified by bioluminescence imaging (BLI) at ˜10 days after tumor cell injection, mice were subjected to intraperitoneal injection of TMZ or YH-IV-255 or YH-IV-275 alone, or in combination. […] This is compelling preliminary evidence that these two new compounds have potent anticancer activity in intracranial GBM xenografts when combined with standard-of-care TMZ chemotherapy and that these drugs cross the blood-brain barrier.
# U87 GBM cells = assay: Cell death ELISA in TMZ-resistant U87 cells; type: cell-based; details: U87, TMZ (500 μM) and inhibitor (10 μM), 72 hr, FIG. 4
# Protocol: (§1) After 72 hr, cell death was determined by a commercial cell death ELISA.
# (§2) To further test the bioactivity of bromodomain inhibitors, T98G and U87 GBM cell lines were used that are highly resistant to the death inducing activity of TMZ. […] Because of their high TMZ resistance, these cells may serve as cell models for TMZ resistant GBM cancer stem-like cells.
# BRG1 bromodomain = biological target: T1, BRG1 bromodomain (Homo sapiens, UniProt P51532); assay: Cellular thermal shift assay (CETSA), BRG1 bromodomain construct in MT330 cells; type: binding; details: FIG. 3
# T1 construct: expressed in transfected cells; host or cells: MT330 glioblastoma cells
# Protocol: After heating over a temperature range from 44.5° C. to 55.6° C. for 5 min, the cells were lysed, placed on ice at 4° C. and then immunoblotted for BRG1 or actin.
# (§3) For the CETSA, MT330 cells expressing the BRM (FIG. 6B), or BRG1 (FIG. 6C) the BRD construct were treated with bromodomain inhibitors […] and immunoblotted as indicated.
# (§4) After heating over a temperature range from 44.5° C. to 55.6° C. for 5 min, MT330 cells were lysed and then immunoblotted for BRG1 or BRM.
# T98G GBM cells [3] = assay: Cell death ELISA in TMZ-resistant T98G cells; type: cell-based; details: TMZ (500 μM) and inhibitor (10 μM), 72 hr
# Protocol: as §1, §2
# MT330 GBM cells = assay: Cell death ELISA in MT330 GBM cells; type: cell-based
# Protocol: Control cells were treated with vehicle (DMSO). Cell death was determined at 72 hr after treatment by a cell death ELISA that quantifies histone-complexed DNA fragments. […]
# Parental and BRG1 knockout MT330 cells were treated with bleomycin (0.01 μM) and bromodomain inhibitors […]. After 72 hr, cell death was determined by cell death ELISA.
# The biological activity of bromodomain inhibitors was assessed for the ability to enhance TMZ-induced cell death. In brief, MT330 cells were treated with […] of bromodomain inhibitors alone, or in combination with […] of TMZ for 72 hrs, and GBM cell death was determined by a commercial ELISA.
# [4] = Tolerability in mice not injected with tumor cells; type: in vivo; details: at the drug doses used
# BRM bromodomain = biological target: T2, BRM bromodomain (Homo sapiens, UniProt P51531); assay: Cellular thermal shift assay (CETSA), BRM bromodomain construct in MT330 cells; type: binding; details: FIG. 3
# T2 construct: expressed in transfected cells; host or cells: MT330 glioblastoma cells
# Protocol: as §3, §4
# [5] = vehicle control band disappearing at 49.8° C.
# T2 sequence (P51531 1378-1506 limits assumed): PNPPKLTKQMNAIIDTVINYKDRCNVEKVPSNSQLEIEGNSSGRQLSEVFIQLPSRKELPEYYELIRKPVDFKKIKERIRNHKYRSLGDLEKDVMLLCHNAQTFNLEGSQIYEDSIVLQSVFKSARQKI
# T1 sequence (P51532 1453-1564 limits assumed): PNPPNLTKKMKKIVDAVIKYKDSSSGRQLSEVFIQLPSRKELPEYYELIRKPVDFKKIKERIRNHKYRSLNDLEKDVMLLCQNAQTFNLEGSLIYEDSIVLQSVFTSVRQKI
compound,measurement,setting,value
"COc1ccc(N2C[C@H]3C[C@@H]2CN3C(=O)OC(C)(C)C)cc1 [YH-IV-129, (1R,4R)-tert-butyl 5-(4-methoxyphenyl)-2,5-diazabicyclo[2.2.1]heptane-2-carboxylate]",sensitization to the antiproliferative action of TMZ,T98G GBM cells [1],potently sensitized T98G GBM cells to the antiproliferative action of TMZ
same,"mean survival, combination with TMZ","[2]; TMZ (60 mg/Kg) and IV-129 (10 mg/Kg) IP, control mice 27 days after cell injection, FIG. 5C",48 days
same,"mean survival, either agent alone","[2]; TMZ (60 mg/Kg) or IV-129 (10 mg/Kg) alone IP, control mice 27 days, FIG. 5C",35 days
same,tumor size by bioluminescence (BLI),"[2]; combination with TMZ (60 mg/Kg) and IV-129 (10 mg/Kg) IP 3 times per week for 2 weeks, 20 days after treatment, versus either agent alone",much smaller tumors
same,weight loss,"[2]; combination with TMZ, 20 days post-treatment, versus either agent alone, FIG. 5B",weight loss was much lower
same,crossing of the blood-brain barrier,[2]; inferred from activity in intracranial GBM xenografts,crosses the blood-brain barrier
same,sensitization to cell-death inducing effects of TMZ,U87 GBM cells,much more potent than PFI-3
same,sensitization to cell-death inducing effects of TMZ,U87 GBM cells; listed as IV-129,more potent than PFI-3 as a chemosensitizer to TMZ
same,thermostability of the BRG1 BRD,"BRG1 bromodomain; 30 μM, heating 44.5° C. to 55.6° C. for 5 min, immunoblot",significantly increased the thermostability
same,temperature at which the BRG1 BRD protein band is undetectable,BRG1 bromodomain; [5],54.20 °C
same,sensitization to cell-death inducing effects of TMZ,T98G GBM cells [3]; FIG. 4,much more potent than PFI-3
same,sensitization to cell-death inducing effects of TMZ,"T98G GBM cells [3]; FIG. 4, listed as IV-129",more potent than PFI-3 as a chemosensitizer to TMZ
same,enhancement of TMZ-induced cell death,"MT330 GBM cells; 10 mM inhibitor in combination with 200 mM of TMZ, 72 hrs, FIG. 1",better efficacy than PFI-3; also recorded: markedly enhanced TMZ sensitivity of GBM cells in vitro
same,enhancement of bleomycin-induced cell death,"MT330 GBM cells; bleomycin (0.01 μM) and bromodomain inhibitors (10 μM), 72 hr, FIG. 9",sensitized GBM cells to bleomycin-induced cell death
same,"cell death, inhibitor alone","MT330 GBM cells; bromodomain inhibitors (10 μM) alone, 72 hr, FIG. 9","none of the bromodomain inhibitors (YH-IV-129, YH-IV-255 and YH-IV-275) alone had any death inducing activity"
same,"adverse effects on health, behavior or weight",[4],"no adverse effects on the health, behavior or weight of mice"
same,thermostability of the BRM BRD,"BRM bromodomain; heating 44.5° C. to 55.6° C. for 5 min, immunoblot",significantly increased the thermostability
same,temperature at which the BRM BRD protein band is undetectable,BRM bromodomain; [5],54.20 °C
